Measured values published in patent publication US20090221010A1, “Methods for Prediction and Prognosis of Cancer, and Monitoring Cancer Therapy” (priority 2005, published 2009).

System: non-small cell lung cancer
Assay: Tumor shrinkage measured radiologically in non-small cell lung cancer patients treated with Sorafenib
Assay type: in vivo, human
Details: non-small cell lung carcinoma; for mean % change in tumor size: measured radiologically

CNC(=O)c1cc(Oc2ccc(NC(=O)Nc3ccc(Cl)c(C(F)(F)F)c3)cc2)ccn1 [Sorafenib]
average tumor shrinkage (patients who showed stable disease, Sorafenib treatment): 5.1%
average tumor growth (patients whose disease progressed, Sorafenib treatment): 20.6%
mean % change in tumor size (patients with Progressive Disease in spite of Sorafenib treatment): 20.6%
mean % change in tumor size (patients with Stable Disease on Sorafenib treatment): −5.1%
